Experimental data as given in US5314887A, “2-amino-1, 4-dihydropyridine derivatives with calcium agonist and alpha -antagonist activity” (The Du Pont Merck Pharmaceutical Company, priority 1992, dated 1994).

How the values were obtained:
[1] = test system: influx of calcium ions into cells; conditions: background statement; cited from earlier work
guinea pig left atria = assay: Positive inotropic effect in guinea pig left atria; conditions: Cavia porcellus; for EC50: left atria paced at 2 Hz, Krebs bicarbonate, 37°, cumulative addition to maximum 10^-4, read-out: EC50 = concentration that increases DT (developed tension) by 50% above the control DT; for Emax: relative to Bay K8644, expressed in percent, read-out: Intrinsic Activity: ratio of the maximum effect of the test compound to that of Bay K8644
Method: Guinea pigs are killed by cervical dislocation. The left atria are removed and mounted at 1 gm resting tension in tissue baths containing oxygenated Krebs bicarbonate solution which is kept at 37°. The left atria are electrically paced at 2 Hz with square wave pulses of 1 msec duration. The voltage is set at 1.5×threshold level.
After a one hour equilibration period, control values for developed tension (DT, gm) are recorded. Test compounds are then added to the baths, in a cumulative manner to a maximum concentration of 10^-4, to obtain a concentration-response curve. Treatment values of DT are obtained after the drug effect has reached a plateau and the exposure time for each concentration is 5-8 minutes. Percent change of the treatment value from the control value is calculated at each concentration of the test compound.
^a EC50 (M) = concentration that increases DT by 50% above the
^b Intrinsic Activity is a ratio of the maximum effect of the test
compound to that of Bay K8644 and expressed in percent.

[2] = target: T1, Ca^2+ channel (rat cardiac microsomes) (Rattus norvegicus, UniProt P22002); assay: [3H]-Nitrendipine binding assay (affinity for calcium channels); conditions: 0.5 nM [3H]-nitrendipine, Tris buffer, 60 minutes at 25°
T1 construct: The reaction mixture contained rat cardiac microsomes; from tissue; host or cells: rat heart (cardiac microsomes)
Method: [^3 H]-Nitrendipine binding assay was carried out according to the method described by G. T. Bolger, et al., Biochem. Biophys. Res. Comm. 104, 1604-1609 (1982). The reaction mixture contained rat cardiac microsomes (source of Ca^2+ channels), 0.5 nM [^3 H]-nitrendipinewith or without potential displacer in Tris buffer. The mixture was incubated for 60 minutes at 25° and subsequently terminated by rapid filtration through a glass fiber-filter. Membrane-bound [^3 H]-nitrendipine trapped in the filter was quantitated by scintillation counting. The inhibitory concentration (IC50) of potential displacer which gives 50% displacement of the total specifically bound [^3 H]-nitrendipine is presented as a measure of the affinity of such compound for the Ca^2+ channel.

[3] = target: alpha1-adrenoceptor (rat brain membranes); assay: [3H]-Prazosin binding assay (affinity for alpha1-adrenoceptors); conditions: 0.2 nM [3H]-prazosin, partially purified rat brain membranes, Tris buffer, 60 minutes at 25°
Method: The [^3 H]-prazosin binding assay was carried out according to the method described by Timmermans, P. B. M. W. M., Schoop, A. M. C., and Van Zwieten, P. A., Biochem. Pharmacol. 31, 899-905 (1982). The reaction mixture contained partially purified rat brain membranes (source of alpha1 -adrenoceptors), 0.2 nM [^3 H]-prazosin with or without potential displacer in Tris buffer. The mixture was incubated for 60 minutes at 25° and subsequently terminated by rapid filtration through glass fiber-filter. Receptor-bound [^3 H]-prazosin trapped in the filter was quantitated by scintillation counting. The inhibitory concentration (IC50) of potential displacer which gives 50% displacement of the total specifically bound [^3 H]-prazosin is presented as a measure of the affinity of such compound for the alpha1 -adrenoceptor.

T1 sequence (P22002 whole entry, other chains not shown): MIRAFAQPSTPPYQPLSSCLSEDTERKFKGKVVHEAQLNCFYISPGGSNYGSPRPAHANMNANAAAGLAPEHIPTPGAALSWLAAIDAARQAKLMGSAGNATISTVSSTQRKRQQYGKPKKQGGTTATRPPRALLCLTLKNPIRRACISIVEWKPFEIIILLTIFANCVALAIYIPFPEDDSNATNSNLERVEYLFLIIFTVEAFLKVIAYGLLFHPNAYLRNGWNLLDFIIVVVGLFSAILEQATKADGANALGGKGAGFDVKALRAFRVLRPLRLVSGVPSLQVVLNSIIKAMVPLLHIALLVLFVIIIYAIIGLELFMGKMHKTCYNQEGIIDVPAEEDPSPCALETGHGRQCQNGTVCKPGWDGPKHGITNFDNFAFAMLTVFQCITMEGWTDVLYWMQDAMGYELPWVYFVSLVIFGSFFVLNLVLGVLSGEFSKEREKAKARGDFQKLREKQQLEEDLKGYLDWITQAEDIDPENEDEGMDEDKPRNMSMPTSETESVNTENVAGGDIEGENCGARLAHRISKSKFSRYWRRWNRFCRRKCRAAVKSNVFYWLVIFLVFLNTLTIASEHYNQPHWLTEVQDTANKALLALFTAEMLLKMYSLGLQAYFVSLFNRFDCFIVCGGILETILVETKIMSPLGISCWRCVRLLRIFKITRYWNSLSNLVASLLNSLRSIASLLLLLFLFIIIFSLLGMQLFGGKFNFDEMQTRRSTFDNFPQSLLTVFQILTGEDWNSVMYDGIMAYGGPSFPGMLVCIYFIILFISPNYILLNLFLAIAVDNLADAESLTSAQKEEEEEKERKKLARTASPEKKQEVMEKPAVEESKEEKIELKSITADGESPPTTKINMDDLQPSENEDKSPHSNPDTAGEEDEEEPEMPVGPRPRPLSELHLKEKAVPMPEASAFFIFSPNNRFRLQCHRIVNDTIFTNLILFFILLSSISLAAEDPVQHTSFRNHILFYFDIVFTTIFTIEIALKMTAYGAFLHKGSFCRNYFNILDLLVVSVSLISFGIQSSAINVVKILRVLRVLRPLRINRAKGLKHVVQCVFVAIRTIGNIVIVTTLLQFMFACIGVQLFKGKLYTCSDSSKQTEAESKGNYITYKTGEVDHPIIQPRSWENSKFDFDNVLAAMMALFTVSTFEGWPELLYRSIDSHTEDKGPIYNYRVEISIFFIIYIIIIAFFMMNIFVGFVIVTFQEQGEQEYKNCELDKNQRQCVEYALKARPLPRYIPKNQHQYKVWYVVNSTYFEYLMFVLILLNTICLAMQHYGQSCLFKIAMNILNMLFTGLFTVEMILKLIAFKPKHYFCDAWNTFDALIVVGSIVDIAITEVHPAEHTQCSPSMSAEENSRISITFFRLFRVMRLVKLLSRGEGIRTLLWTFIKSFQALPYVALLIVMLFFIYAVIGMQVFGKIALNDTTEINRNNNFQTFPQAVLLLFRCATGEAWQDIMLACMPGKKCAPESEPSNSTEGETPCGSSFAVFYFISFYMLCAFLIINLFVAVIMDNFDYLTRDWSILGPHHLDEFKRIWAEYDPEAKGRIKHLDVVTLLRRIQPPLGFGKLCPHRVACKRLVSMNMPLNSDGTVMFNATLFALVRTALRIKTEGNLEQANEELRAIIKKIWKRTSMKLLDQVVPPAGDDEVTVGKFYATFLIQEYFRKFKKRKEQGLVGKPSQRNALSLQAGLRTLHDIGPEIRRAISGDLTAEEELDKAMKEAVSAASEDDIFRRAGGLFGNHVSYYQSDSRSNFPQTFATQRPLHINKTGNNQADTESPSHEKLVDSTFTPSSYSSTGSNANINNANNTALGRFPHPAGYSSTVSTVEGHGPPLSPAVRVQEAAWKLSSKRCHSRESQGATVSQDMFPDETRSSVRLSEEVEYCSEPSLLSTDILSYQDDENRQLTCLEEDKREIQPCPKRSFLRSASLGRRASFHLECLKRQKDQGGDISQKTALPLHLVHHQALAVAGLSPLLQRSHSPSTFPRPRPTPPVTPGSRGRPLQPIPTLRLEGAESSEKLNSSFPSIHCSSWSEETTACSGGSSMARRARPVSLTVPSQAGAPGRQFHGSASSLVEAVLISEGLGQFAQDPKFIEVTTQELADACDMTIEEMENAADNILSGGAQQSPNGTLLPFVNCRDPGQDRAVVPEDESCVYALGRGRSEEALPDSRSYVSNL
T1 sequence (P54290 25-944 partner limits assumed, other chains not shown): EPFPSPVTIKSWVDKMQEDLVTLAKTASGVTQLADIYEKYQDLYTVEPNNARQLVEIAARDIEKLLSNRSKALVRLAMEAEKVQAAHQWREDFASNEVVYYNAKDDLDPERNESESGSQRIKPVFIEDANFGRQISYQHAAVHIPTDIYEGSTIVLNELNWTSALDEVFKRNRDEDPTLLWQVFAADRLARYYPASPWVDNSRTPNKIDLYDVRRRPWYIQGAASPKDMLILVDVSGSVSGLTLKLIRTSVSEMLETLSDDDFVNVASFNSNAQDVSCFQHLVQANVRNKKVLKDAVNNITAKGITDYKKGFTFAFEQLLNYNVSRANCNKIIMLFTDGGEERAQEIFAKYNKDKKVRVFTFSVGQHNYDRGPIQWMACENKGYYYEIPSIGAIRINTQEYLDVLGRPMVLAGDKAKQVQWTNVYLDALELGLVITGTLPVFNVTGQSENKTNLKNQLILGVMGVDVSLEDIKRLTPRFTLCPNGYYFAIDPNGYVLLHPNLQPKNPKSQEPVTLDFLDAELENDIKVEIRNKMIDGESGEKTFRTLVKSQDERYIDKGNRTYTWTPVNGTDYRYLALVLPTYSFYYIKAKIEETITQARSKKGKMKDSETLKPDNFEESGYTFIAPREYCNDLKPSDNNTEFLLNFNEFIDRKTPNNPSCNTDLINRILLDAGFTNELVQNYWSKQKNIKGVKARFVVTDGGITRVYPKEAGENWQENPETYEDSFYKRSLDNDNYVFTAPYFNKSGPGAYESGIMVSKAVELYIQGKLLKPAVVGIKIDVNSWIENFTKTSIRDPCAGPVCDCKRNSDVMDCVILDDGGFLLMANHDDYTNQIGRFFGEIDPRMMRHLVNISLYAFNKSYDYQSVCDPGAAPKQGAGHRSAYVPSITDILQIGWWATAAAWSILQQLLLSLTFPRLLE
T1 sequence (P54290 945-1091 partner limits assumed, other chains not shown): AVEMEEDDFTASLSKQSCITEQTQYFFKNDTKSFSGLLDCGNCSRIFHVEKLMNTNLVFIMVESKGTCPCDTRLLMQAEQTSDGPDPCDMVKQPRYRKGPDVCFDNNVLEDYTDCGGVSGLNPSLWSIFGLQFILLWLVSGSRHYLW

Row | Compound | EC50 (guinea pig left atria) | IC50 [2] | IC50 [3] | coronary vasoconstricting properties [1] | effect on calcium influx, inotropic and vasoconstrictor effects [1] | potency as a calcium agonist relative to CGP 28392 [1] | Emax (guinea pig left atria)
1 | COC(=O)C1=C(C)NC(C)=C([N+](=O)[O-])C1c1ccccc1C(F)(F)F (stereo not shown) [Bay K8644] | 150 nM |  |  | coronary vasoconstricting properties | promote an influx of calcium ions into cells, thereby producing positive inotropic and vasoconstrictor effects | more than ten times as potent as CGP 28392 | 100%
2 | CCOC(=O)C1=C(C)NC2=C(C(=O)OC2)C1c1ccccc1OC(F)F (stereo not shown) [CGP 28392] |  |  |  |  | promote an influx of calcium ions into cells, thereby producing positive inotropic and vasoconstrictor effects |  | 
3 | COC(=O)C1=C(N)NC(C)=C([N+](=O)[O-])C1c1ccccc1OCCCCCN1CCN(c2ncccn2)CC1 (stereo not shown) [Example 3, 2-Amino-1,4-dihydro-4-(2-{5-[4-(2-pyrimidinyl)-1-piperazinyl]-pentyloxy}phenyl)-6-methyl-5-nitro-3-pyridinecarboxylic acid methyl ester] | 1000 nM | 930 nM | 160 nM |  |  |  | 170%
4 | COC(=O)C1=C(N)NC(C)=C([N+](=O)[O-])C1c1ccccc1OCCCCCN1CCN(c2ccccc2OC)CC1 (stereo not shown) [Example 4, 2-Amino-1,4-dihydro-4-(2-{5-[4-(2-methoxyphenyl)-1-piperazinyl]-pentyloxy}phenyl)-6-methyl-5-nitro-3-pyridinecarboxylic acid methyl ester] | 1600 nM | 1600 nM | 3400 nM |  |  |  | 128%
5 | COC(=O)C1=C(N)NC(C)=C([N+](=O)[O-])C1c1ccccc1SCCCCN1CCN(c2ncccn2)CC1 (stereo not shown) [Example 6] | 47 nM | 400 nM | 4500 nM |  |  |  | 113%
6 | COC(=O)C1=C(N)NC(C)=C([N+](=O)[O-])C1c1ccccc1SCCCN1CCN(c2ccccc2OC)CC1 (stereo not shown) [Example 10] | 3500 nM | 300 nM | 80 nM |  |  |  | 115%
7 | COC(=O)C1=C(N)NC(C)=C([N+](=O)[O-])C1c1ccccc1SCCCCCN1CCN(c2ccccc2OC)CC1 (stereo not shown) [Example 11] | 2400 nM | 240 nM | 42 nM |  |  |  | 112%

Now from value to compound, other results behind:

Row | EC50 (guinea pig left atria) | IC50 [2] | IC50 [3] | Compound | coronary vasoconstricting properties [1] | effect on calcium influx, inotropic and vasoconstrictor effects [1] | potency as a calcium agonist relative to CGP 28392 [1] | Emax (guinea pig left atria)
8 | 550 nM | 520 nM | 60 nM | COC(=O)C1=C(N)NC(C)=C([N+](=O)[O-])C1c1ccccc1SCCCCN1CCN(c2ccccc2OC)CC1 (stereo not shown) [Example 1, 2-Amino-1,4-dihydro-4-(2-{4-[4-(2-methoxyphenyl)-1-piperazinyl]-butylthio}phenyl)-6-methyl-5-nitro-3-pyridinecarboxylic acid methyl ester] |  |  |  | 166%
9 | 5700 nM | 1700 nM | 11 nM | COC(=O)C1=C(N)NC(C)=C([N+](=O)[O-])C1c1ccccc1[S+]([O-])CCCCN1CCN(c2ccccc2OC)CC1 (stereo not shown) [Example 2, 2-Amino-1,4-dihydro-4-(2-{4-[4-(2-methoxyphenyl)-1-piperazinyl]-butylsulfinyl}phenyl)-6-methyl-5-nitro-3-pyridinecarboxylic acid methyl ester] |  |  |  | 90%
10 | 1500 nM | 390 nM | 60 nM | COC(=O)C1=C(N)NC(C)=C([N+](=O)[O-])C1c1ccccc1S(=O)(=O)CCCCN1CCN(c2ccccc2OC)CC1 (stereo not shown) [Example 5, 2-Amino-1,4-dihydro-4-(2-{4-[4-(2-methoxyphenyl)-1-piperazinyl]-butylsulfonyl}phenyl)-6-methyl-5-nitro-3-pyridinecarboxylic acid methyl ester] |  |  |  | 119%
11 | 9600 nM | 150 nM | 150 nM | COC(=O)C1=C(N)NC(C)=C([N+](=O)[O-])C1c1ccccc1SCCCCN1CCC(C(=O)c2ccc(F)cc2)CC1 (stereo not shown) [Example 7] |  |  |  | 112%
12 | 500 nM | 2300 nM | 2400 nM | COC(=O)C1=C(N)NC(C)=C([N+](=O)[O-])C1c1ccccc1[S+]([O-])CCCCN1CCN(c2ncccn2)CC1 (stereo not shown) [Example 8, 2-Amino-1,4-dihydro-4-(2-{4-[4-(2-pyrimidinyl)-1-piperazinyl]-butylsulfinyl}phenyl)-6-methyl-5-nitro-3-pyridinecarboxylic acid methyl ester] |  |  |  | 254%
13 | 10000 nM | 2400 nM | 150 nM | COC(=O)C1=C(N)NC(C)=C([N+](=O)[O-])C1c1ccccc1[S+]([O-])CCCCN1CCC(C(=O)c2ccc(F)cc2)CC1 (stereo not shown) [Example 9] |  |  |  | 56%
14 | > 100000 nM | 620 nM | 52 nM | COC(=O)C1=C(N)NC(C)=C([N+](=O)[O-])C1c1ccccc1[S+]([O-])CCCN1CCN(c2ccccc2OC)CC1 (stereo not shown) [Example 12] |  |  |  | 35%
15 | 5200 nM | 1300 nM | 25 nM | COC(=O)C1=C(N)NC(C)=C([N+](=O)[O-])C1c1ccccc1[S+]([O-])CCCCCN1CCN(c2ccccc2OC)CC1 (stereo not shown) [Example 13] |  |  |  | 119%
